Source: patent publication US20260137665A1, “COMBINATION THERAPIES FOR THE TREATMENT OF CANCER” (AADI Bioscience, Inc., priority 2022, published 2026)

What was measured:
[1] = test system: NCI-H2030 human non-small cell lung cancer xenografts; assay: Anti-tumor activity in mice bearing NCI-H2030 tumor xenografts; format: in vivo; conditions: for Response Rate % (Tumor Regression >−30%): NCI-H2030-xenografted mice, doses per Table A1; for tumor growth inhibition (TGI): NCI-H2030 xenografts, female athymic mice, n=3/group, doses and routes per Table A1
Excerpt: (NCI-H2030 mutation profile: KRAS^G12C, STK11^E317*, TP53^G262V.) The KRAS G12C mutation, which is common in NSCLC, leads to constitutive activation of the tumor growth-promoting RAS/MAPK signaling pathway. STK11 is a negative regulator of mTOR signaling. The mTOR pathway is often activated in patients with KRAS mutation and contributes to adaptive resistance to KRAS inhibitors.
Female athymic mice were implanted with human NCI-H2030 NSCLC cells in both flanks.

[2] = test system: NCI-H2122 human non-small cell lung cancer xenografts; assay: Anti-tumor activity in mice bearing NCI-H2122 tumor xenografts; format: in vivo; conditions: for Response Rate % (Tumor Regression >−30%): NCI-H2122-xenografted mice, doses per Table D
Description: Next, a similar set of experiments was performed in mice bearing human NCI-H2122 tumor xenografts. NCI-H2122 is a human NSCLC […] cancer cell line that harbors KRAS^G12C and STK11 null (loss of function) mutations.

[3] = test system: UMUC3 human bladder cancer xenografts; assay: Anti-tumor activity in mice bearing UMUC3 tumor xenografts
Description: UMUC3 is a human transitional cell carcinoma (bladder cancer) cell line harboring KRAS^G12C and PTEN null mutations. PTEN is a negative regulator or mTOR activity (UMUC3 mutation profile: KRAS^G12C, PTEN^null, TP53^F113C, ATM^Q2800fs, CDKN2A^null, UGT2B17^null.)
Briefly, female athymic mice were implanted with NCI-H2122 cells in their right flanks. When tumor volume reached approximately 100-150 mm^3, animals were randomly divided into nine groups (n=6/group), and administered with saline (control), a single agent drug, or a drug combination shown in Table F below according to the administration routes, dosages and administration frequencies shown in Table F below.

| Compound | Response Rate % (Tumor Regression >−30%) [1] [%] | tumor growth inhibition (TGI) [1] [%] | Response Rate % (Tumor Regression >−30%) [2] [%] | tumor growth inhibition (TGI) ([2]; NCI-H2122 xenografts, female athymic mice, n=5/group, doses and routes per Table D) [%] | mice tumor-free during the study ([3]; UMUC3-xenografted mice, n=6/group) | mice surviving to the end of the study (Day 42) ([3]; UMUC3-xenografted mice, n=6/group, doses per Table F) | Response Rate % (Tumor Regression >−30%) ([3]; UMUC3-xenografted mice, doses per Table F) [%] | tumor growth inhibition (TGI) ([3]; UMUC3 xenografts, female athymic mice, n=6/group, doses and routes per Table F) [%] |
| --- | --- | --- | --- | --- | --- | --- | --- | --- |
| C=CC(=O)N1CCN(c2nc(=O)n(-c3c(C)ccnc3C(C)C)c3nc(-c4c(O)cccc4F)c(F)cc23)[C@@H](C)C1 (atropisomer, axis not shown; (M)) [sotorasib, 6-Fluoro-7-(2-fluoro-6-hydroxyphenyl)-(1M)-1-[4-methyl-2-(propan-2-yl)pyridin-3-yl]-4-[(2S)-2-methyl-4-(prop-2-enoyl)piperazin-1-yl]pyrido[2,3-d]pyrimidin-2(1H)-one] | 0 | 20 | 0 | 79 | 0/6 | 0/6 | 0 | 100 |
| CO[C@H]1C[C@@H]2CC[C@@H](C)[C@@](O)(O2)C(=O)C(=O)N2CCCC[C@H]2C(=O)O[C@H]([C@H](C)C[C@@H]2CC[C@@H](OCCO)[C@H](OC)C2)CC(=O)[C@H](C)/C=C(\C)[C@@H](O)[C@@H](OC)C(=O)[C@H](C)C[C@H](C)/C=C/C=C/C=C/1C [everolimus] | 0 | 22 | 10 | – | – | – | – | – |
